Reference: article PMC11180795 (Frontiers in Pharmacology, 2024)

Assays:
[1] = Cytotoxicity MTT assay on RAW 264.7 cells; format: cell-based, Murine; conditions: mouse, RAW 264.7 macrophage cells, 48 h incubation, read-out: IC50, cytotoxic effect on RAW264.7 cells
Method: Murine macrophage RAW 264.7 cell line obtained from the American Type Culture Collection (Rockville, MD, United States) was maintained in DMEM supplemented with 10% fetal calf serum (FCS) and 1% penicillin/streptomycin/fungizone (PSF) under standard cell culture conditions at 37°C and 5% CO2 in a humidified environment.
The cytotoxic effect of compounds on RAW 264.7 cells was assessed using the 3-(4, 5-dimethylthiazol-2-yl)-2, 5-diphenyl tetrazolium bromide (MTT) assay as established by Mosmann ([Mosmann, 1983]) with slight modifications. Briefly, cells were seeded at a density of 1 × 10^5 cells/mL (100 µL) in 96-well microtitre plates and incubated at 37°C and 5% CO2 in a humidified environment. After 24 h incubation, 100 µL of compounds (at concentration ranged from to 250 μM–1.95 µM) were added to the wells containing cells and further incubated for 48 h in a CO2 incubator. A suitable control (untreated cells) was included and doxorubicin was used as a positive reference. Thereafter, the medium in each well was aspirated from the cells, which were then washed with PBS, and finally fresh medium (200 µL) was added to each well. Then, 30 µL of MTT (5 mg/mL in PBS) was added to each well and the plates were incubated at 37°C for 4 h. The medium was aspirated from the wells and DMSO was added to solubilize the formed formazan crystals. The absorbance was read at 570 nm (SpectraMax 190, Molecular devices). The percentage of cell inhibition was calculated with reference to the control (untreated cells taken as 100% viability). Then, the IC50 values of plant compounds showing more than 50% cell growth inhibition were calculated by plotting the percentage inhibition against the concentration.

[2] = test system: RAW 264.7 macrophage cells; set-up: method as in Sukandar et al., 2023; conditions: final concentration of 100 μM, ref Sukandar et al., 2023; cited from earlier work
NO production = test system: NO production; set-up: method as in Liu et al., 2016; conditions: ref Liu et al., 2016; read-out: IC50, inhibition of NO production; cited from earlier work

Compound	IC50 at 48 h [1] [µM]	IC50 (NO production) [µM]	further results
CC(C)=CCCC1(C)C=Cc2c(cc3oc4c(O)ccc(O)c4c(=O)c3c2O)O1 (stereo not shown) [Compound 3, Smeathxanthone B]	> 100		melting point: 187 to 189 °C
COc1cccc2c1C(=O)c1c(O)c3c(c(O)c1C2=O)C[C@@](O)(C(=O)CO)C[C@@H]3O[C@H]1C[C@H](N)[C@H](O)[C@H](C)O1 [Doxorubicin, doxorubicin, reference compound]	4.63		
CC12CCC3C1C(c1c(cc(O)c(C(=O)c4ccccc4)c1O)O2)C3(C)C (stereo not shown) [clusiacyclol A]			NO inhibition [2]: over 85%; cytotoxicity (in words) [2]: without obvious cytotoxicity
garcinoxanthone B		11.3	
garcinoxanthone C		18	
